Experimental data from PubChem BioAssay (NCI).
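In this assay, cells in 96-well plates receive the compound at five concentrations for 48 hours. Endpoints are linearly interpolated between the surrounding concentrations. TGI denotes the concentration required for complete inhibition of growth.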

Key:
Assay in all cases: NCI tumour cell line growth inhibition, 48 h
MDA-N = system: MDA-N
HS 578T breast = system: HS 578T breast
PC-3 prostate = system: PC-3 prostate
SK-OV-3 ovarian = system: SK-OV-3 ovarian
786-0 renal = system: 786-0 renal
NCI-H23 lung = system: NCI-H23 lung
UACC-62 melanoma = system: UACC-62 melanoma
CCRF-CEM leukemia = system: CCRF-CEM leukemia
IGROV1 ovarian = system: IGROV1 ovarian
LOX IMVI melanoma = system: LOX IMVI melanoma
A549 NSCLC = system: A549 NSCLC
HOP-92 NSCLC = system: HOP-92 NSCLC
MALME-3M melanoma = system: MALME-3M melanoma
UO-31 renal = system: UO-31 renal
CAKI-1 renal = system: CAKI-1 renal
SF-268 CNS = system: SF-268 CNS
MDA-MB-435 = system: MDA-MB-435
SNB-75 CNS = system: SNB-75 CNS
KM12 colon = system: KM12 colon
SK-MEL-5 melanoma = system: SK-MEL-5 melanoma
SR leukemia = system: SR leukemia
U251 CNS = system: U251 CNS
K-562 leukemia = system: K-562 leukemia
RXF 393 renal = system: RXF 393 renal
EKVX NSCLC = system: EKVX NSCLC
SF-295 CNS = system: SF-295 CNS
DU-145 prostate = system: DU-145 prostate
SW-620 colon = system: SW-620 colon
T-47D breast = system: T-47D breast
NCI-H226 lung = system: NCI-H226 lung
SN12C renal = system: SN12C renal
HL-60(TB) leukemia = system: HL-60(TB) leukemia
NCI-H460 lung = system: NCI-H460 lung
TK-10 renal = system: TK-10 renal
OVCAR-8 ovarian = system: OVCAR-8 ovarian
SK-MEL-2 melanoma = system: SK-MEL-2 melanoma
HCC-2998 colon = system: HCC-2998 colon
MDA-MB-231 breast = system: MDA-MB-231 breast
ACHN renal = system: ACHN renal
HCT-15 colon = system: HCT-15 colon
OVCAR-3 ovarian = system: OVCAR-3 ovarian
NCI-H522 lung = system: NCI-H522 lung
MOLT-4 leukemia = system: MOLT-4 leukemia
OVCAR-5 ovarian = system: OVCAR-5 ovarian
SNB-19 CNS = system: SNB-19 CNS
COLO 205 colon = system: COLO 205 colon
OVCAR-4 ovarian = system: OVCAR-4 ovarian
A498 renal = system: A498 renal
HT29 colon = system: HT29 colon
M14 melanoma = system: M14 melanoma
NCI/ADR-RES ovarian = system: NCI/ADR-RES ovarian
MCF7 breast = system: MCF7 breast
SK-MEL-28 melanoma = system: SK-MEL-28 melanoma
HOP-62 NSCLC = system: HOP-62 NSCLC
SF-539 CNS = system: SF-539 CNS
HCT-116 colon = system: HCT-116 colon
BT-549 breast = system: BT-549 breast
UACC-257 melanoma = system: UACC-257 melanoma
RPMI-8226 leukemia = system: RPMI-8226 leukemia

## COc1cc(S(=O)(=O)Nc2nc(-c3ccc(N=Cc4cccs4)cc3)cs2)ccc1Cl
MDA-N
  TGI: > 100 µM
HS 578T breast
  TGI: > 100 µM
PC-3 prostate
  TGI: > 100 µM
SK-OV-3 ovarian
  TGI: > 100 µM
786-0 renal
  TGI: > 100 µM
NCI-H23 lung
  TGI: > 100 µM
UACC-62 melanoma
  TGI: 48.7 µM
CCRF-CEM leukemia
  TGI: > 100 µM
IGROV1 ovarian
  TGI: > 100 µM
LOX IMVI melanoma
  TGI: > 100 µM
A549 NSCLC
  TGI: > 100 µM
HOP-92 NSCLC
  TGI: > 100 µM
MALME-3M melanoma
  TGI: > 100 µM
UO-31 renal
  TGI: > 100 µM
CAKI-1 renal
  TGI: > 100 µM
SF-268 CNS
  TGI: > 100 µM
MDA-MB-435
  TGI: > 100 µM
SNB-75 CNS
  TGI: > 100 µM
KM12 colon
  TGI: > 100 µM
SK-MEL-5 melanoma
  TGI: > 100 µM
SR leukemia
  TGI: 57 µM
U251 CNS
  TGI: > 100 µM
K-562 leukemia
  TGI: > 100 µM
RXF 393 renal
  TGI: 49.6 µM
EKVX NSCLC
  TGI: > 100 µM
SF-295 CNS
  TGI: > 100 µM
DU-145 prostate
  TGI: > 100 µM
SW-620 colon
  TGI: > 100 µM
T-47D breast
  TGI: > 100 µM
NCI-H226 lung
  TGI: > 100 µM
SN12C renal
  TGI: 64.1 µM
HL-60(TB) leukemia
  TGI: > 100 µM
NCI-H460 lung
  TGI: > 100 µM
TK-10 renal
  TGI: > 100 µM
OVCAR-8 ovarian
  TGI: > 100 µM
SK-MEL-2 melanoma
  TGI: > 100 µM
HCC-2998 colon
  TGI: > 100 µM
MDA-MB-231 breast
  TGI: > 100 µM
ACHN renal
  TGI: > 100 µM
HCT-15 colon
  TGI: > 100 µM
OVCAR-3 ovarian
  TGI: 78.6 µM
NCI-H522 lung
  TGI: > 100 µM
MOLT-4 leukemia
  TGI: 98.7 µM
OVCAR-5 ovarian
  TGI: > 100 µM
SNB-19 CNS
  TGI: > 100 µM
COLO 205 colon
  TGI: > 100 µM
OVCAR-4 ovarian
  TGI: > 100 µM
A498 renal
  TGI: > 100 µM
HT29 colon
  TGI: > 100 µM
M14 melanoma
  TGI: > 100 µM
NCI/ADR-RES ovarian
  TGI: > 100 µM
MCF7 breast
  TGI: > 100 µM
SK-MEL-28 melanoma
  TGI: > 100 µM
HOP-62 NSCLC
  TGI: > 100 µM
SF-539 CNS
  TGI: > 100 µM
HCT-116 colon
  TGI: > 100 µM
BT-549 breast
  TGI: > 100 µM
UACC-257 melanoma
  TGI: > 100 µM

## CN(C)Cc1cc(N=Nc2ccccc2)ccc1O
MDA-N
  TGI: > 100 µM
HS 578T breast
  TGI: > 100 µM
PC-3 prostate
  TGI: > 100 µM
786-0 renal
  TGI: > 100 µM
NCI-H23 lung
  TGI: > 100 µM
UACC-62 melanoma
  TGI: 69.2 µM
CCRF-CEM leukemia
  TGI: > 100 µM
IGROV1 ovarian
  TGI: > 100 µM
LOX IMVI melanoma
  TGI: > 100 µM
A549 NSCLC
  TGI: > 100 µM
HOP-92 NSCLC
  TGI: > 100 µM
MALME-3M melanoma
  TGI: > 100 µM
UO-31 renal
  TGI: 89.6 µM
CAKI-1 renal
  TGI: > 100 µM
SF-268 CNS
  TGI: > 100 µM
RPMI-8226 leukemia
  TGI: > 100 µM
MDA-MB-435
  TGI: > 100 µM
SNB-75 CNS
  TGI: > 100 µM
KM12 colon
  TGI: > 100 µM
SK-MEL-5 melanoma
  TGI: 29.4 µM
SR leukemia
  TGI: > 100 µM
U251 CNS
  TGI: > 100 µM
K-562 leukemia
  TGI: 58.1 µM
RXF 393 renal
  TGI: 69.2 µM
EKVX NSCLC
  TGI: > 100 µM
SF-295 CNS
  TGI: > 100 µM
DU-145 prostate
  TGI: > 100 µM
SW-620 colon
  TGI: > 100 µM
T-47D breast
  TGI: > 100 µM
NCI-H226 lung
  TGI: > 100 µM
SN12C renal
  TGI: > 100 µM
HL-60(TB) leukemia
  TGI: > 100 µM
NCI-H460 lung
  TGI: > 100 µM
TK-10 renal
  TGI: > 100 µM
OVCAR-8 ovarian
  TGI: > 100 µM
SK-MEL-2 melanoma
  TGI: > 100 µM
HCC-2998 colon
  TGI: > 100 µM
MDA-MB-231 breast
  TGI: > 100 µM
ACHN renal
  TGI: > 100 µM
HCT-15 colon
  TGI: > 100 µM
OVCAR-3 ovarian
  TGI: > 100 µM
NCI-H522 lung
  TGI: 73.9 µM
MOLT-4 leukemia
  TGI: > 100 µM
OVCAR-5 ovarian
  TGI: > 100 µM
SNB-19 CNS
  TGI: > 100 µM
COLO 205 colon
  TGI: > 100 µM
A498 renal
  TGI: 79.1 µM
HT29 colon
  TGI: > 100 µM
M14 melanoma
  TGI: > 100 µM
NCI/ADR-RES ovarian
  TGI: > 100 µM
MCF7 breast
  TGI: > 100 µM
SK-MEL-28 melanoma
  TGI: > 100 µM
HOP-62 NSCLC
  TGI: > 100 µM
SF-539 CNS
  TGI: > 100 µM
HCT-116 colon
  TGI: > 100 µM
BT-549 breast
  TGI: > 100 µM
UACC-257 melanoma
  TGI: 76.9 µM

## O=S(=O)(Nc1ccccc1)c1ccc(-c2c3nc(c(-c4ccc(S(=O)(=O)Nc5ccccc5)cc4)c4ccc([nH]4)c(-c4ccc(S(=O)(=O)Nc5ccccc5)cc4)c4nc(c(-c5ccc(S(=O)(=O)Nc6ccccc6)cc5)c5ccc2[nH]5)C=C4)C=C3)cc1
MDA-N
  TGI: > 31.6 µM
HS 578T breast
  TGI: > 31.6 µM
PC-3 prostate
  TGI: > 31.6 µM
SK-OV-3 ovarian
  TGI: > 31.6 µM
786-0 renal
  TGI: > 31.6 µM
NCI-H23 lung
  TGI: > 31.6 µM
UACC-62 melanoma
  TGI: > 31.6 µM
CCRF-CEM leukemia
  TGI: > 31.6 µM
IGROV1 ovarian
  TGI: > 100 µM
A549 NSCLC
  TGI: > 31.6 µM
HOP-92 NSCLC
  TGI: > 31.6 µM
MALME-3M melanoma
  TGI: > 31.6 µM
UO-31 renal
  TGI: > 31.6 µM
CAKI-1 renal
  TGI: > 31.6 µM
SF-268 CNS
  TGI: > 31.6 µM
MDA-MB-435
  TGI: > 31.6 µM
SNB-75 CNS
  TGI: > 31.6 µM
KM12 colon
  TGI: > 31.6 µM
SK-MEL-5 melanoma
  TGI: > 31.6 µM
SR leukemia
  TGI: > 31.6 µM
U251 CNS
  TGI: > 31.6 µM
K-562 leukemia
  TGI: > 31.6 µM
RXF 393 renal
  TGI: > 31.6 µM
EKVX NSCLC
  TGI: > 31.6 µM
SF-295 CNS
  TGI: > 31.6 µM
DU-145 prostate
  TGI: > 31.6 µM
SW-620 colon
  TGI: > 31.6 µM
T-47D breast
  TGI: > 31.6 µM
NCI-H226 lung
  TGI: > 100 µM
SN12C renal
  TGI: > 31.6 µM
HL-60(TB) leukemia
  TGI: > 31.6 µM
NCI-H460 lung
  TGI: 16.2 µM
TK-10 renal
  TGI: > 31.6 µM
OVCAR-8 ovarian
  TGI: > 31.6 µM
SK-MEL-2 melanoma
  TGI: > 31.6 µM
HCC-2998 colon
  TGI: > 31.6 µM
MDA-MB-231 breast
  TGI: > 31.6 µM
ACHN renal
  TGI: 22.4 µM
HCT-15 colon
  TGI: > 31.6 µM
NCI-H522 lung
  TGI: > 31.6 µM
MOLT-4 leukemia
  TGI: > 31.6 µM
OVCAR-5 ovarian
  TGI: > 31.6 µM
SNB-19 CNS
  TGI: > 31.6 µM
COLO 205 colon
  TGI: > 31.6 µM
OVCAR-4 ovarian
  TGI: 24.6 µM
A498 renal
  TGI: > 31.6 µM
HT29 colon
  TGI: > 31.6 µM
M14 melanoma
  TGI: 23.6 µM
NCI/ADR-RES ovarian
  TGI: > 31.6 µM
MCF7 breast
  TGI: > 31.6 µM
SF-539 CNS
  TGI: > 31.6 µM
HCT-116 colon
  TGI: > 31.6 µM
BT-549 breast
  TGI: > 31.6 µM
UACC-257 melanoma
  TGI: > 31.6 µM
